Measurements: patent US20260234211A1, “POLYPEPTIDE HAVING MODIFIED STRUCTURE AND USE THEREOF” (Guangdong Raynovent Biotech Co., Ltd., priority 2023, published 2026)
Where two headings read alike, the source gives them in different places. Numbered stars: 1 amine (or outer) side, 2 acyl side, 3 side chain; on linkers, the order of the positions; unused ones are H or OH. Bridge positions count the residues as written; N and C are the ends. Square brackets hold non-standard residues; d marks the D form. Peptide text beside a SMILES is read from it. X1 = O=C(O)CCCCCCCCCCCCCCCCCCC(=O)N[C@@H](CCC(=O)NCCOCCOCC(=O)NCCCC[C@H](N[*:2])C(=O)[*:1])C(=O)O; αMeL = CC(C)C[C@](C)(N)C(=O)O; Aib = CC(C)(N)C(=O)O

Assays:
GCGR = target: T1, GCGR (Homo sapiens, UniProt P47871); experiment: In vitro GCGR agonistic activity test (cAMP, HEK293 cell line); assay type: cell-based
T1 construct: host or cells: HEK293
T1 sequence (P47871 26-477, species assumed): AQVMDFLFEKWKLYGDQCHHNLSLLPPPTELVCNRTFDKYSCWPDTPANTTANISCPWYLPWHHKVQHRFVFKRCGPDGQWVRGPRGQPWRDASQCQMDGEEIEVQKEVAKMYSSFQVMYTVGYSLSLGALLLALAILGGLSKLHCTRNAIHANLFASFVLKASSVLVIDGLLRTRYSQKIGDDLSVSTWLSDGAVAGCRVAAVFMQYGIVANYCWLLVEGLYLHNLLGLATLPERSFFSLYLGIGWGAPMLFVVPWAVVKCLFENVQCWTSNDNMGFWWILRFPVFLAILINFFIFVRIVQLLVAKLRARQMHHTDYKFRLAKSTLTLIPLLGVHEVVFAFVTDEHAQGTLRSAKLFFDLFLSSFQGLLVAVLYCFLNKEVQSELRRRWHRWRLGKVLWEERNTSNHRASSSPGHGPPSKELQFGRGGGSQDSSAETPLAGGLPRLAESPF
Procedure: (§1) The cell lines were constructed by Pharmaron Inc. See details in the table below.
(§2) The test compounds were diluted at a 5-fold dilution factor in 10 points, starting from an initial concentration of 200 nM.
(§3) 1) The cell lines were cultured respectively in complete medium at 37° C. and 5% CO2.
2) After digestion with TrypLE, the cells were re-suspended in experimental buffer respectively, and inoculated in a CulturPlate-384 cell culture plate at a density of 2000 cells/well and at a volume of 15 μL/well.
(§4) 1) Eu-cAMP tracer was freeze-thawed and diluted 50 fold with detection buffer; and Ulight-anti-cAMP was freeze-thawed and diluted 150 fold with detection buffer.
2) 5 μL of the test compounds were added respectively into experimental wells of the CulturPlate-384 cell culture plate, which was centrifuged at 200 g for 30 s, and left for stand at 37° C. for 30 min.
(§5) 3) 10 μL of Eu-cAMP tracer was added and then 10 μL of Uligh-anti-cAMP was added into experimental wells respectively.
(§6) 4) The reaction plate was centrifuged at 200 g at room temperature for 30 s and left for stand at 25° C. for 1 h.
5) Envision 2105 was used to collect data, with excitation light at 340 nm and emission light at 665 nm and 615 nm.

GLP-1R = target: T2, GLP-1R (Homo sapiens, UniProt P43220); experiment: In vitro GLP-1R agonistic activity test (cAMP, HEK293 cell line); assay type: cell-based
T2 construct: host or cells: HEK293
T2 sequence (P43220 24-463, species assumed): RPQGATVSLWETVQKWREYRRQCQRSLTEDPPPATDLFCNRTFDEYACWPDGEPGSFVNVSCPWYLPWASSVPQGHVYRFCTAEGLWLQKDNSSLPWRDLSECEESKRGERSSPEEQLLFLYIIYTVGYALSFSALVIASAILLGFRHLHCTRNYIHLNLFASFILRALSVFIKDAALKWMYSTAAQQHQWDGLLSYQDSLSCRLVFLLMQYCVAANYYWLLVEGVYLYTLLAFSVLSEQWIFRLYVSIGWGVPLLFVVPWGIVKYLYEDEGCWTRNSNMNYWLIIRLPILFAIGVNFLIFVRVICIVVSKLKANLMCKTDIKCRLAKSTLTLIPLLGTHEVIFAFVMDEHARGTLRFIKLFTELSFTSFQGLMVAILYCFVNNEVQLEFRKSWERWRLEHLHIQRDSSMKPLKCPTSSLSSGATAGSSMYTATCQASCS
Procedure: as §1, §2, §3, §4, §5, §6

[1] = Pharmacokinetic properties in Cynomolgus macaques; details: cynomolgus monkey, in vivo, male cynomolgus macaques, plasma; for AUC(0-t): read-out: AUC0-240 h; for AUC(0-inf): read-out: AUCINF; for Cmax: read-out: Cmax; for half-life: read-out: T1/2 (converted); for Tmax: read-out: Tmax
Procedure: To test the pharmacokinetic profiles of the compounds in Cynomolgus macaques.
Non-juvenile male cynomolgus macaques were used for experiment, 3 cynomolgus macaques for each compound. Whole blood was collected at time points of 1 h, 2 h, 4 h, 8 h, 16 h, 24 h, 48 h, 72 h, 120 h, 168 h and 240 h after administration, to prepare plasma. The drug concentration was analyzed by LC-MS/MS method, and the pharmacokinetic parameters were calculated using Phoenix WinNonlin software.

[2] = Metabolic stability in human kidney S9; assay type: in vitro ADME; details: human, s9
Procedure: The metabolic stability of the compounds in human kidney was evaluated to determine whether the drugs would be degraded by metabolic enzymes in the kidney to affect the efficacies and pharmacokinetics. 1. Relevant solutions were formulated. 2. a) With cofactors (NADPH & UDPGA): NADPH and UDPGA were added during the incubation. […] H2O was added into the culture solution. The final concentration of KS9 Fractions was 1 mg/mL. The mixture was pre-heated at 37° C. for 10 min. […] In this study, 7-hydroxy-coumarin and Raloxifene were used as the positive control. The final concentration of the positive control compounds was 0.2 μM, and the final concentration of the test compound was 1 μM. The culture solution was incubated in water bath at 37° C. 4. At 0.5, 5, 15, 30 and 60 min, volume aliquots were taken from the reaction solution and the reaction was stopped by adding acetonitrile. The samples were centrifuged for 30 min. The supernatant was taken and mixed with ultrapure water for subsequent LC-MS/MS analysis. 5. Data analysis: All calculation was conducted using Microsoft Excel. Peak areas were determined and slope values were calculated based on the extracted ion chromatograms.

[3] = cAMP, HEK293 cells expressing GCGR, read-out: GCG EC50
[4] = cAMP, HEK293 cells expressing GLP-1R, read-out: GLP-1 EC50

SMILES	EC50 (GCGR; [3])	EC50 (GLP-1R; [4])	AUC(0-t) [1]	AUC(0-inf) [1]	Cmax [1]	half-life [1]	Tmax [1]	EC50 (GLP-1R)	half-life at 1 μM [2]	microsomal CLint at 1 μM [2]	EC50 (GCGR)
CC[C@H](C)[C@H](NC(=O)[C@H](Cc1ccccc1)NC(=O)[C@H](C)NC(=O)C(C)(C)NC(=O)[C@H](CCC(N)=O)NC(=O)[C@H](C)NC(=O)[C@@H]1CCCCNC(=O)CN(C(=O)COCCOCCNC(=O)CC[C@H](NC(=O)CCCCCCCCCCCCCCCCCCC(=O)O)C(=O)O)CC(=O)NCCCC[C@H](NC(=O)[C@](C)(CC(C)C)NC(=O)[C@@H](NC(=O)[C@H](CO)NC(=O)[C@H](Cc2ccc(O)cc2)NC(=O)[C@H](CC(=O)O)NC(=O)[C@H](CO)NC(=O)[C@@H](NC(=O)[C@](C)(Cc2ccccc2)NC(=O)[C@@H](NC(=O)CNC(=O)[C@H](CCC(N)=O)NC(=O)C(C)(C)NC(=O)[C@@H](N)Cc2ccc(O)cc2)[C@@H](C)O)[C@@H](C)O)[C@@H](C)CC)C(=O)N[C@@H](CC(=O)O)C(=O)N[C@@H](CCCCN)C(=O)N1)C(=O)N[C@@H](CCC(=O)O)C(=O)N[C@@H](Cc1ccc(O)cc1)C(=O)N[C@@H](CC(C)C)C(=O)N[C@@H](CC(C)C)C(=O)N[C@@H](CCCCN)C(=O)NCC(=O)NCC(=O)N1CCC[C@H]1C(=O)N[C@@H](CO)C(=O)N[C@@H](CO)C(=O)NCC(=O)N[C@@H](C)C(=O)N1CCC[C@H]1C(=O)N1CCC[C@H]1C(=O)N1CCC[C@H]1C(=O)N[C@@H](CO)C(N)=O [Example 51, YAibQGT α-MeFTSDY SIα- MeL^1KD K^1KAQAib AFIEY LLKGG PSSGA PPPS-NH2 (SEQ ID NO: 43)]	25 pM	1 pM									
CC[C@H](C)[C@H](NC(=O)[C@H](Cc1ccccc1)NC(=O)[C@H](C)NC(=O)C(C)(C)NC(=O)[C@H](CCC(N)=O)NC(=O)[C@H](C)NC(=O)[C@@H]1CCCCNC(=O)CN(C(=O)COCCOCCNC(=O)CC[C@H](NC(=O)CCCCCCCCCCCCCCCCCCC(=O)O)C(=O)O)CC(=O)NCCCC[C@H](NC(=O)[C@](C)(CC(C)C)NC(=O)[C@@H](NC(=O)[C@H](CO)NC(=O)[C@H](Cc2ccc(O)cc2)NC(=O)[C@H](CC(=O)O)NC(=O)[C@H](CO)NC(=O)[C@@H](NC(=O)[C@H](Cc2ccccc2)NC(=O)[C@@H](NC(=O)CNC(=O)[C@H](CCC(N)=O)NC(=O)C(C)(C)NC(=O)[C@@H](N)Cc2ccc(O)cc2)[C@@H](C)O)[C@@H](C)O)[C@@H](C)CC)C(=O)N[C@@H](CC(=O)O)C(=O)N[C@@H](CCCCN)C(=O)N1)C(=O)N[C@@H](CCC(=O)O)C(=O)N[C@@H](Cc1ccc(O)cc1)C(=O)N[C@@H](CC(C)C)C(=O)N[C@@H](CC(C)C)C(=O)N[C@@H](CCCCN)C(=O)NCC(=O)NCC(=O)N1CCC[C@H]1C(=O)N[C@@H](CO)C(=O)N[C@@H](CO)C(=O)NCC(=O)N[C@@H](C)C(=O)N1CCC[C@H]1C(=O)N1CCC[C@H]1C(=O)N1CCC[C@H]1C(=O)N[C@@H](CO)C(N)=O [Example 38, YAibQGT FTSDY SIα- MeL^1KD K^1KAQAib AFIEY LLKGG PSSGA PPPS-NH2 (SEQ ID NO: 38)]			3.88 µM·h	4.41 µM·h	33.9 nM	74.9 h	21.3 h	2 pM			
CC[C@H](C)[C@H](NC(=O)[C@H](Cc1ccccc1)NC(=O)[C@H](C)NC(=O)C(C)(C)NC(=O)[C@H](CCC(N)=O)NC(=O)[C@H](C)NC(=O)[C@@H]1CCCCNC(=O)CN(C(=O)COCCOCCNC(=O)CC[C@H](NC(=O)CCCCCCCCCCCCCCCCCCC(=O)O)C(=O)O)CC(=O)NCCCC[C@H](NC(=O)[C@](C)(CC(C)C)NC(=O)[C@@H](NC(=O)[C@H](CO)NC(=O)[C@H](Cc2ccc(O)cc2)NC(=O)[C@H](CC(=O)O)NC(=O)[C@H](CO)NC(=O)[C@@H](NC(=O)[C@H](Cc2ccccc2)NC(=O)[C@@H](NC(=O)CNC(=O)[C@H](CCC(N)=O)NC(=O)C(C)(C)NC(=O)[C@@H](N)Cc2ccc(O)cc2)[C@@H](C)O)[C@@H](C)O)[C@@H](C)CC)C(=O)N[C@@H](CC(=O)O)C(=O)N[C@@H](CCCCN)C(=O)N1)C(=O)N[C@@H](CCC(N)=O)C(=O)N[C@@H](Cc1ccc(O)cc1)C(=O)N[C@@H](CC(C)C)C(=O)N[C@@H](CC(C)C)C(=O)N[C@@H](CCC(=O)O)C(=O)NCC(=O)NCC(=O)N1CCC[C@H]1C(=O)N[C@@H](CO)C(=O)N[C@@H](CO)C(=O)NCC(=O)N[C@@H](C)C(=O)N1CCC[C@H]1C(=O)N1CCC[C@H]1C(=O)N1CCC[C@H]1C(=O)N[C@@H](CO)C(N)=O [Example 42, YAibQGT FTSDY SIα- MeL^1KD K^1KAQAib AFIQY LLEGG PSSGA PPPS-NH2 (SEQ ID NO: 39)]	25 pM	7 pM									
CC[C@H](C)[C@H](NC(=O)[C@H](Cc1ccccc1)NC(=O)[C@@H]1CCC(=O)N[C@@H](CCCCNC(=O)COCCOCCNC(=O)CC[C@H](NC(=O)CCCCCCCCCCCCCCCCCCC(=O)O)C(=O)O)C(=O)NCCCC[C@H](NC(=O)[C@H](CCCCN)NC(=O)[C@H](CC(=O)O)NC(=O)[C@H](CC(C)C)NC(=O)[C@](C)(CC(C)C)NC(=O)[C@@H](NC(=O)[C@H](CO)NC(=O)[C@H](Cc2ccc(O)cc2)NC(=O)[C@H](CC(=O)O)NC(=O)[C@H](CO)NC(=O)[C@@H](NC(=O)[C@H](Cc2ccccc2)NC(=O)[C@@H](NC(=O)CNC(=O)[C@H](CCC(N)=O)NC(=O)C(C)(C)NC(=O)[C@@H](N)Cc2ccc(O)cc2)[C@@H](C)O)[C@@H](C)O)[C@@H](C)CC)C(=O)N[C@@H](C)C(=O)N[C@@H](CCC(N)=O)C(=O)NC(C)(C)C(=O)N1)C(=O)N[C@@H](CCC(=O)O)C(=O)N[C@@H](Cc1ccc(O)cc1)C(=O)N[C@@H](CC(C)C)C(=O)N[C@@H](CC(C)C)C(=O)N[C@@H](CCC(=O)O)C(=O)NCC(=O)NCC(=O)N1CCC[C@H]1C(=O)N[C@@H](CO)C(=O)N[C@@H](CO)C(=O)NCC(=O)N[C@@H](C)C(=O)N1CCC[C@H]1C(=O)N1CCC[C@H]1C(=O)N1CCC[C@H]1C(=O)N[C@@H](CO)C(N)=O [Example 10, YAibQGT FTSDY SIα- MeLLD K^1KAQAib ^1EFIEY LLEGG PSSGA PPPS-NH2 (SEQ ID NO: 16)] (H-Y[Aib]QGTFTSDYSI[αMeL]LDKKAQ[Aib]EFIEYLLEGGPSSGAPPPS-NH2; linker 17-21 via X1 (inferred); N-terminus assumed)		9 pM							> 3.08 h	< 3.75 µL/min/mg	
CC[C@H](C)[C@H](NC(=O)[C@H](Cc1ccccc1)NC(=O)[C@H](C)NC(=O)C(C)(C)NC(=O)[C@H](CCC(N)=O)NC(=O)[C@H](C)NC(=O)[C@@H]1CCCCNC(=O)CN(C(=O)COCCOCCNC(=O)[C@@H](N)CCCCNC(=O)CC[C@H](NC(=O)CCCCCCCCCCCCCCCCCCC(=O)O)C(=O)O)CC(=O)NCCCC[C@H](NC(=O)[C@](C)(CC(C)C)NC(=O)[C@@H](NC(=O)[C@H](CO)NC(=O)[C@H](Cc2ccc(O)cc2)NC(=O)[C@H](CC(=O)O)NC(=O)[C@H](CO)NC(=O)[C@@H](NC(=O)[C@H](Cc2ccccc2)NC(=O)[C@@H](NC(=O)CNC(=O)[C@H](CCC(N)=O)NC(=O)C(C)(C)NC(=O)[C@@H](N)Cc2ccc(O)cc2)[C@@H](C)O)[C@@H](C)O)[C@@H](C)CC)C(=O)N[C@@H](CC(=O)O)C(=O)N[C@@H](CCCCN)C(=O)N1)C(=O)N[C@@H](CCC(=O)O)C(=O)N[C@@H](Cc1ccc(O)cc1)C(=O)N[C@@H](CC(C)C)C(=O)N[C@@H](CC(C)C)C(=O)N[C@@H](CCC(=O)O)C(=O)NCC(=O)NCC(=O)N1CCC[C@H]1C(=O)N[C@@H](CO)C(=O)N[C@@H](CO)C(=O)NCC(=O)N[C@@H](C)C(=O)N1CCC[C@H]1C(=O)N1CCC[C@H]1C(=O)N1CCC[C@H]1C(=O)N[C@@H](CO)C(N)=O [Example 52, YAibQGT FTSDY SIα- MeL^1KD K^1KAQAib AFIEY LLEGG PSSGA PPPS-NH2 (SEQ ID NO: 24)]			5.23 µM·h	6.61 µM·h	36.2 nM	97.8 h	29.3 h	3 pM			25 pM
